Test results as given in US20090197955A1, “METHODS OF IMPROVING DHA DEPOSITION AND RELATED FUNCTION AND/OR DEVELOPMENT” (Monsanto Company, priority 2008, published 2009).

Assays:
[1] = Heart phospholipid fatty acid composition of pigs fed SDA; format: in vivo; settings: for Average heart DHA level, percent of total fatty acids / Average heart EPA level, percent of total fatty acids / Average heart SDA level, percent of total fatty acids: 35 days
Method: (§1) After completion of the feeding phase, animals were slaughtered and tissues were collected for evaluation. A sample of brain was obtained by making a cup from the occipital condyle at the base of the skull to the back of the eye. A portion of the brain from the cerebral cortex, and some of the mid brain was collected. About 1 g of frozen heart or brain tissue was pulverized in a stainless steel mortar and pestle maintained at −70° C. It was then suspended in 2 mL of ice-cold saline and sonicated on ice to thoroughly disperse the tissue. The lipids were extracted with methylene chloride:methanol. The PL fractions were isolated by thin layer chromatography and methylated for 10 minutes in BF3-methanol at 100° C. After extraction of the fatty acid methyl esters (FAME) with hexane:water, their composition was analyzed in a GC2010 (Shimadzu Scientific Instruments, Columbia, Md.) using a fused silica capillary columns (SP-2560, 100 m length, 0.25 mm internal diameter, 0.25 um film thickness, Supelco, Bellefonte, Pa.). A weighed external standard fatty acid (FA) mixture (GLC727, NuCheck Prep, Elysian, Minn.) was included to correct for potential differences in FA response factors. The response factor for palmitic acid of is assumed to be 1.0. Results were expressed as a percent of total identified FA (for composition endpoints) and as mg FA/g tissue.

[2] = Brain phospholipid fatty acid composition of pigs fed SDA; format: in vivo; settings: for Brain phospholipid DHA, percent of total fatty acids / Brain phospholipid EPA, percent of total fatty acids / Brain phospholipid SDA, percent of total fatty acids: 35 days
Method: as §1, with “In addition to measuring long-chain fatty acid incorporation into tissues, additional research was undertaken to understand the alterations in fatty acid concentration in the brain and heart tissues. In particular, DHA is known to be a significant fraction of brain composition. As such, the following experiments were conducted with brain matter extracted from the pigs used in the study above. After completion” for “After completion”

SMILES: CC/C=C\C/C=C\C/C=C\C/C=C\CCCCC(=O)O [SDA, stearidonic acid]
- Average heart DHA level, percent of total fatty acids ([1]; SDA 0.2%): 0.49%
- Average heart EPA level, percent of total fatty acids ([1]; SDA 0.2%): 1.82%
- Average heart SDA level, percent of total fatty acids ([1]; SDA 0.2%): 0.05%
- Average heart DHA level, percent of total fatty acids ([1]; SDA 0.4%): 0.42%
- Average heart EPA level, percent of total fatty acids ([1]; SDA 0.4%): 3.86%
- Average heart SDA level, percent of total fatty acids ([1]; SDA 0.4%): 0.13%
- Average heart DHA level, percent of total fatty acids ([1]; SDA 0.6%): 0.57%
- Average heart EPA level, percent of total fatty acids ([1]; SDA 0.6%): 4.83%
- Average heart SDA level, percent of total fatty acids ([1]; SDA 0.6%): 0.19%
- Average heart DHA level, percent of total fatty acids ([1]; SDA 0.8%): 0.62%
- Average heart EPA level, percent of total fatty acids ([1]; SDA 0.8%): 6.71%
- Average heart SDA level, percent of total fatty acids ([1]; SDA 0.8%): 0.36%
- Dose response for deposition of SDA, EPA and DHA in heart phospholipids ([1]; regression analysis on the mean response at each dose level): statistically significant (p<0.05)
- Brain phospholipid DHA, percent of total fatty acids ([2]; SDA 0.2%): 10.07%
- Brain phospholipid EPA, percent of total fatty acids ([2]; SDA 0.2%): 0.02%
- Brain phospholipid SDA, percent of total fatty acids ([2]; SDA 0.2%): 0.01%
- Brain phospholipid DHA, percent of total fatty acids ([2]; SDA 0.4%): 9.15%
- Brain phospholipid EPA, percent of total fatty acids ([2]; SDA 0.4%): 0.04%
- Brain phospholipid SDA, percent of total fatty acids ([2]; SDA 0.4%): 0.01%
- Brain phospholipid DHA, percent of total fatty acids ([2]; SDA 0.6%): 10.99%
- Brain phospholipid EPA, percent of total fatty acids ([2]; SDA 0.6%): 0.06%
- Brain phospholipid SDA, percent of total fatty acids ([2]; SDA 0.6%): 0.01%
- Brain phospholipid DHA, percent of total fatty acids ([2]; SDA 0.8%): 11.21%
- Brain phospholipid EPA, percent of total fatty acids ([2]; SDA 0.8%): 0.06%
- Brain phospholipid SDA, percent of total fatty acids ([2]; SDA 0.8%): 0.01%
- Deposition of EPA and DHA in the brain ([2]; SDA feeding): dose response deposition of EPA and DHA in the brain
